{
  "source": "the supplement of paper PMC8967900",
  "data": [
    {"system": "PF-382", "assay": "selective drug sensitivity score (sDSS, relative to normal bone marrow) (sDSS (score)); higher = more potent and effective on the cell line relative to normal bone marrow cells", "settings": "72 h", "values": [
      {"molecule": "Cc1ccc(NC(=O)c2ccc(CN3CCN(C)CC3)cc2)cc1Nc1nc(-c2cccnc2)cs1", "note": "[Masitinib] (top concentration 10000 nM)", "selective drug sensitivity score": 1.42},
      {"molecule": "CCN(CC)CCCC(C)Nc1c2ccc(Cl)cc2nc2ccc(OC)cc12", "note": "(stereo not given) [Mepacrine] (top concentration 50000 nM)", "selective drug sensitivity score": -4.6},
      {"molecule": "COc1ccc(-c2ccc3ncc4c(c3c2)n(-c2ccc(N3CCNCC3)c(C(F)(F)F)c2)c(=O)n4C)cn1", "note": "[NVP-BGT226] (top concentration 1000 nM)", "selective drug sensitivity score": 6.02},
      {"molecule": "COc1nc(N)nc2c1ncn2[C@@H]1O[C@H](CO)[C@@H](O)[C@@H]1O", "note": "[Nelarabine] (top concentration 10000 nM)", "selective drug sensitivity score": -1.62},
      {"molecule": "Cc1cn(-c2cc(NC(=O)c3ccc(C)c(Nc4nccc(-c5cccnc5)n4)c3)cc(C(F)(F)F)c2)cn1", "note": "[Nilotinib] (top concentration 10000 nM)", "selective drug sensitivity score": 2.7},
      {"molecule": "NC(=O)c1cccc2cn(-c3ccc(C4CCCNC4)cc3)nc12", "note": "(stereo not given) [Niraparib] (top concentration 10000 nM)", "selective drug sensitivity score": -2.12},
      {"molecule": "COc1ccc(C[C@H](NC(=O)[C@H](C)NC(=O)CN2CCOCC2)C(=O)N[C@@H](Cc2ccccc2)C(=O)[C@@]2(C)CO2)cc1", "note": "[ONX-0914] (top concentration 10000 nM)", "selective drug sensitivity score": 6.5},
      {"molecule": "CC(=O)c1cnc2ccc(-c3cc(Cl)c(O)c(Cl)c3)nc2c1N[C@H]1CC[C@H](CN(C)C)CC1", "note": "[OTS167] (top concentration 1000 nM)", "selective drug sensitivity score": -2.62},
      {"molecule": "COC(=O)C[C@](O)(CCCC(C)(C)O)C(=O)O[C@@H]1C(OC)=C[C@]23CCCN2CCc2cc4c(cc2[C@H]13)OCO4", "note": "[Omacetaxine] (top concentration 10000 nM)", "selective drug sensitivity score": 0.62}
    ]},
    {"system": "RCH-ACV", "assay": "selective drug sensitivity score (sDSS, relative to normal bone marrow) (sDSS (score)); higher = more potent and effective on the cell line relative to normal bone marrow cells", "settings": "72 h", "values": [
      {"molecule": "CCOC(=O)CCNc1cc(N2CCc3ccccc3CC2)nc(-c2ccccn2)n1", "note": "[GSK-J4] (top concentration 100000 nM)", "selective drug sensitivity score": -8.58},
      {"molecule": "Cc1cc(Nc2cc(CN3CCOCC3)c3nc(C)c(Cc4ccc(Cl)cc4F)n3n2)n[nH]1", "note": "[Gandotinib] (top concentration 10000 nM)", "selective drug sensitivity score": 8.88},
      {"molecule": "NC(=O)NO", "note": "[Hydroxyurea] (top concentration 1000000 nM)", "selective drug sensitivity score": 9.66},
      {"molecule": "Cc1ccc(NC(=O)c2ccc(CN3CCN(C)CC3)cc2)cc1Nc1nccc(-c2cccnc2)n1", "note": "[Imatinib] (top concentration 10000 nM)", "selective drug sensitivity score": 2.16},
      {"molecule": "CC(C)NC[C@@H](C(=O)N1CCN(c2ncnc3c2[C@H](C)C[C@H]3O)CC1)c1ccc(Cl)cc1", "note": "[Ipatasertib] (top concentration 10000 nM)", "selective drug sensitivity score": 12},
      {"molecule": "CCC(C)n1ncn(-c2ccc(N3CCN(c4ccc(OCC5COC(Cn6cncn6)(c6ccc(Cl)cc6Cl)O5)cc4)CC3)cc2)c1=O", "note": "(stereo not given) [Itraconazole] (top concentration 5000 nM)", "selective drug sensitivity score": 5.48},
      {"molecule": "Cc1sc2c(c1C)C(c1ccc(Cl)cc1)=N[C@@H](CC(=O)OC(C)(C)C)c1nnc(C)n1-2", "note": "[JQ1] (top concentration 10000 nM)", "selective drug sensitivity score": 12.3},
      {"molecule": "CCNC(=O)c1noc(-c2cc(C(C)C)c(O)cc2O)c1-c1ccc(CN2CCOCC2)cc1", "note": "[Luminespib] (top concentration 1000 nM)", "selective drug sensitivity score": 3.6},
      {"molecule": "O=C(c1cccc(Cl)c1F)N1CCN(Cc2cccc(Nc3nccs3)n2)CC1", "note": "[MK-8745] (top concentration 10000 nM)", "selective drug sensitivity score": 9.7},
      {"molecule": "Cc1ccc(NC(=O)c2ccc(CN3CCN(C)CC3)cc2)cc1Nc1nc(-c2cccnc2)cs1", "note": "[Masitinib] (top concentration 10000 nM)", "selective drug sensitivity score": 0.02},
      {"molecule": "CCN(CC)CCCC(C)Nc1c2ccc(Cl)cc2nc2ccc(OC)cc12", "note": "(stereo not given) [Mepacrine] (top concentration 50000 nM)", "selective drug sensitivity score": -4.5},
      {"molecule": "COc1ccc(-c2ccc3ncc4c(c3c2)n(-c2ccc(N3CCNCC3)c(C(F)(F)F)c2)c(=O)n4C)cn1", "note": "[NVP-BGT226] (top concentration 1000 nM)", "selective drug sensitivity score": 20.1},
      {"molecule": "COc1nc(N)nc2c1ncn2[C@@H]1O[C@H](CO)[C@@H](O)[C@@H]1O", "note": "[Nelarabine] (top concentration 10000 nM)", "selective drug sensitivity score": 1.98},
      {"molecule": "Cc1cn(-c2cc(NC(=O)c3ccc(C)c(Nc4nccc(-c5cccnc5)n4)c3)cc(C(F)(F)F)c2)cn1", "note": "[Nilotinib] (top concentration 10000 nM)", "selective drug sensitivity score": 8.3},
      {"molecule": "NC(=O)c1cccc2cn(-c3ccc(C4CCCNC4)cc3)nc12", "note": "(stereo not given) [Niraparib] (top concentration 10000 nM)", "selective drug sensitivity score": 6.48},
      {"molecule": "COc1ccc(C[C@H](NC(=O)[C@H](C)NC(=O)CN2CCOCC2)C(=O)N[C@@H](Cc2ccccc2)C(=O)[C@@]2(C)CO2)cc1", "note": "[ONX-0914] (top concentration 10000 nM)", "selective drug sensitivity score": -4.4},
      {"molecule": "CC(=O)c1cnc2ccc(-c3cc(Cl)c(O)c(Cl)c3)nc2c1N[C@H]1CC[C@H](CN(C)C)CC1", "note": "[OTS167] (top concentration 1000 nM)", "selective drug sensitivity score": 8.28},
      {"molecule": "COC(=O)C[C@](O)(CCCC(C)(C)O)C(=O)O[C@@H]1C(OC)=C[C@]23CCCN2CCc2cc4c(cc2[C@H]13)OCO4", "note": "[Omacetaxine] (top concentration 10000 nM)", "selective drug sensitivity score": 7.22}
    ]},
    {"system": "TMD5", "assay": "selective drug sensitivity score (sDSS, relative to normal bone marrow) (sDSS (score)); higher = more potent and effective on the cell line relative to normal bone marrow cells", "settings": "72 h", "values": [
      {"molecule": "CCOC(=O)CCNc1cc(N2CCc3ccccc3CC2)nc(-c2ccccn2)n1", "note": "[GSK-J4] (top concentration 100000 nM)", "selective drug sensitivity score": -9.38},
      {"molecule": "Cc1cc(Nc2cc(CN3CCOCC3)c3nc(C)c(Cc4ccc(Cl)cc4F)n3n2)n[nH]1", "note": "[Gandotinib] (top concentration 10000 nM)", "selective drug sensitivity score": -0.82},
      {"molecule": "NC(=O)NO", "note": "[Hydroxyurea] (top concentration 1000000 nM)", "selective drug sensitivity score": -3.24},
      {"molecule": "Cc1ccc(NC(=O)c2ccc(CN3CCN(C)CC3)cc2)cc1Nc1nccc(-c2cccnc2)n1", "note": "[Imatinib] (top concentration 10000 nM)", "selective drug sensitivity score": 8.96},
      {"molecule": "CC(C)NC[C@@H](C(=O)N1CCN(c2ncnc3c2[C@H](C)C[C@H]3O)CC1)c1ccc(Cl)cc1", "note": "[Ipatasertib] (top concentration 10000 nM)", "selective drug sensitivity score": -1.8},
      {"molecule": "CCC(C)n1ncn(-c2ccc(N3CCN(c4ccc(OCC5COC(Cn6cncn6)(c6ccc(Cl)cc6Cl)O5)cc4)CC3)cc2)c1=O", "note": "(stereo not given) [Itraconazole] (top concentration 5000 nM)", "selective drug sensitivity score": -2.32},
      {"molecule": "Cc1sc2c(c1C)C(c1ccc(Cl)cc1)=N[C@@H](CC(=O)OC(C)(C)C)c1nnc(C)n1-2", "note": "[JQ1] (top concentration 10000 nM)", "selective drug sensitivity score": -3.08},
      {"molecule": "CCNC(=O)c1noc(-c2cc(C(C)C)c(O)cc2O)c1-c1ccc(CN2CCOCC2)cc1", "note": "[Luminespib] (top concentration 1000 nM)", "selective drug sensitivity score": -6.3},
      {"molecule": "O=C(c1cccc(Cl)c1F)N1CCN(Cc2cccc(Nc3nccs3)n2)CC1", "note": "[MK-8745] (top concentration 10000 nM)", "selective drug sensitivity score": 9.4},
      {"molecule": "Cc1ccc(NC(=O)c2ccc(CN3CCN(C)CC3)cc2)cc1Nc1nc(-c2cccnc2)cs1", "note": "[Masitinib] (top concentration 10000 nM)", "selective drug sensitivity score": 1.82},
      {"molecule": "CCN(CC)CCCC(C)Nc1c2ccc(Cl)cc2nc2ccc(OC)cc12", "note": "(stereo not given) [Mepacrine] (top concentration 50000 nM)", "selective drug sensitivity score": -7.6},
      {"molecule": "COc1ccc(-c2ccc3ncc4c(c3c2)n(-c2ccc(N3CCNCC3)c(C(F)(F)F)c2)c(=O)n4C)cn1", "note": "[NVP-BGT226] (top concentration 1000 nM)", "selective drug sensitivity score": -5.58},
      {"molecule": "COc1nc(N)nc2c1ncn2[C@@H]1O[C@H](CO)[C@@H](O)[C@@H]1O", "note": "[Nelarabine] (top concentration 10000 nM)", "selective drug sensitivity score": -10.2},
      {"molecule": "Cc1cn(-c2cc(NC(=O)c3ccc(C)c(Nc4nccc(-c5cccnc5)n4)c3)cc(C(F)(F)F)c2)cn1", "note": "[Nilotinib] (top concentration 10000 nM)", "selective drug sensitivity score": 21},
      {"molecule": "NC(=O)c1cccc2cn(-c3ccc(C4CCCNC4)cc3)nc12", "note": "(stereo not given) [Niraparib] (top concentration 10000 nM)", "selective drug sensitivity score": -1.72},
      {"molecule": "COc1ccc(C[C@H](NC(=O)[C@H](C)NC(=O)CN2CCOCC2)C(=O)N[C@@H](Cc2ccccc2)C(=O)[C@@]2(C)CO2)cc1", "note": "[ONX-0914] (top concentration 10000 nM)", "selective drug sensitivity score": 0},
      {"molecule": "CC(=O)c1cnc2ccc(-c3cc(Cl)c(O)c(Cl)c3)nc2c1N[C@H]1CC[C@H](CN(C)C)CC1", "note": "[OTS167] (top concentration 1000 nM)", "selective drug sensitivity score": -7.22},
      {"molecule": "COC(=O)C[C@](O)(CCCC(C)(C)O)C(=O)O[C@@H]1C(OC)=C[C@]23CCCN2CCc2cc4c(cc2[C@H]13)OCO4", "note": "[Omacetaxine] (top concentration 10000 nM)", "selective drug sensitivity score": -2.08}
    ]}
  ]
}
